{
  "source": "patent US20080171706A1",
  "about": "“Anti-Adhesive Compounds to Prevent and Treat Bacterial Infections” (priority 2004, published 2008)",
  "experiment_in_all_cases": "biochemical",
  "key": {"FimHtrJ96": {"molecular_target": "T1, FimHtrJ96 (Escherichia coli, UniProt P08191)", "T1 construct": "coding for the lectin domain of FimH (residues 1-158) with a C-terminal 6-histidine tag; made in house; host or cells: E. coli HB101 (lacking the fim operon), periplasmic extract, plasmid pPKL241", "T1 sequence (P08191 22-179)": "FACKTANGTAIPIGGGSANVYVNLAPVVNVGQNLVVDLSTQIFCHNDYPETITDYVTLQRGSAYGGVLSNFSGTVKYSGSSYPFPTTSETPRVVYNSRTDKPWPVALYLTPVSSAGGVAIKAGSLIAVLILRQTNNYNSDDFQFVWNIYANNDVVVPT", "format": "binding, uropathogenic E. coli strain J96", "conditions": "for Kd: Table 3, [3H]-mannose displacement assay (mannose measured directly), read-out: KD J96; for ΔG° J96: Table 3, calculated from KD", "procedure": "To measure the dissociation constant for FimH:alkyl or aryl-mannoside binding, two different binding assays were developed. The first binding assay uses [^3H]-mannose. The amount of radioactively labeled mannose bound to FimHtrJ96 was measured at six different concentrations of [^3H]-mannose, and a hyperbolic curve fitted to the resulting data (FIG. 1A). FimHtrJ96 corresponds to the carbohydrate (mannose) binding domain of FimH from the uropathogenic E. coli strain J96. The dissociation equilibrium constant was determined from this graph at the concentration of mannose […], which corresponds to occupation of half of the binding sites.\nSurface Plasmon Resonance measurements were performed on a Biacore3000™. In a first experiment, the kinetic constants and maximal binding were determined for the FimH-antibody interaction. Next, a fixed concentration of FimH (close to the KD of the FimH-antibody interaction) in combination with varying concentrations of carbohydrate, were used to determine the dissociation equilibrium constant of the FimH-saccharide interaction in a competition experiment. Every measurement was repeated at least twice, including testing the variation between different protein and saccharide batches.\nTo eliminate the possibility of different binding strength for full length FimH and FimHtrJ96, the binding of alpha-D-mannose to FimC:FimH complex was also measured. […] The inhibition of [^3H]-mannose binding was used in a displacement assay to determine the dissociation constant for a synthetic butyl mannoside by measuring the amount of [^3H]-mannose bound to the protein in the presence of increasing amounts of the inhibitor (FIG. 1B). […] To investigate the effect of sequential addition of methyl groups to the O1 oxygen of D-mannose, a series of alkyl mannosides were synthesized and the dissociation constants determined using the [^3H]-mannose displacement assay and by surface plasmon resonance (Table 1).\nSurface Plasmon Resonance measurements were performed on a Biacore3000™. The Fab fragments of a monoclonal antibody against FimH were covalently immobilised via lysines at 1000 Resonance Units (1000 pg ligand/mm^2) in flowcell Fc2 on a CM5 biasensor chip (BIAapplications Handbook, Biacore AB, Uppsala, Sweden). Immobilisation buffer was 100 mM NaAc pH 5.0 with 100 mM NaCl. The reference flowcell Fc1 was left blank.\nBinding of FimH to the immobilized antibody was measured with a Biacore 3000 instrument in running buffer (phosphate buffered saline with 0.005% surfactant P20 and 3 mM EDTA), on both flowcells Fc1 and Fc2 simultaneously, at a flow rate of 30 μl/min and at 25° C. Complete dissociation of FimH was done with running buffer before starting a new binding cycle. For all measurements, the association time was 3 minutes, the dissociation time was 30 min. All binding cycles were performed in duplicate, including a zero concentration cycle of FimH (injection of running buffer).\nIn a first experiment, the kinetic constants, ka and kd, and the maximal binding Rmax, were determined for the FimH-antibody interaction (FimH concentrations (nM): 2000, 1000, 500, 250, 125, 62.5, 31.25, 15.625, 7.818, 3.911, 1.957, 0). All analyses were performed with the BIAeval software. A Langmuir binding isotherm with a 1:1 stoichiometry was fitted to the data, from which the kinetic constants and maximal binding were obtained.\nIn the next experiment, samples containing a fixed concentration of FimH (close to the KD of the FimH-antibody interaction) in combination with varying concentrations of saccharide, were used to determine the dissociation constant of the FimH-saccharide interaction in a competition experiment. First, ten-fold dilutions of the saccharide solution were used to determine the concentration range for binding of the saccharide to FimH."}, "FimHtrCl#4": {"molecular_target": "T2, FimHtrCl#4 (Escherichia coli, UniProt P08191, G94E/N91S/S99N/V48A)", "T2 construct": "coding for the lectin domain of FimH (residues 1-158) with a C-terminal 6-histidine tag; made in house; host or cells: E. coli HB101 (lacking the fim operon), periplasmic extract, plasmid pMAS146", "T2 sequence (P08191 22-179 V48A/N91S/G94E/S99N)": "as the sequence (P08191 22-179) above, with V27A, N70S, G73E, S78N counted along it", "format": "binding, E. coli UPEC (Cl#4) strain", "conditions": "for Kd: Table 3, [3H]-mannose displacement assay (mannose measured directly), read-out: KD CI#4; for ΔG° CI#4: Table 3, calculated from KD", "procedure": "(§1) To investigate if these variations reflect differences in sugar binding at the molecular level, the dissociation constants of a series of mannosides for the FimH lectin domain from a fecal (F18) and from a UPEC (Cl#4) strain were determined. […] For comparison, binding to FimHtrJ96 was also investigated. Both F18 and Cl#4 FimH lectin domains were cloned, expressed, and purified in the same way as FimHtrJ96 (Schembri et al., 2000). These two lectin domains differ from the lectin domain of FimHJ96 by substitutions Val27Ala, Asn70Ser and Ser78Asn. In addition, FimHCl#4 differs from the other two variants by a Gly73Glu substitution. […] Five different tri-mannosides corresponding to high-mannose substructures were synthesized, and their binding to FimHtrJ96, FimHtrF18 and FimHtrCl#4 measured using our [^3H]-mannose displacement assay (Table 3). Alpha-D-mannose binding was first directly measured for each of the FimH variants.\n(§2) [^3H]alpha-D-mannose was obtained from Amersham. […] Syntheses of tri-mannosides was as reported earlier by Oscarson and co-workers (1993). Weighed amounts of tri-mannosides were dissolved in double distilled water to give stock solutions of 0.87 M man-(1,2)-man-(1,2)-man, 0.25 M man-(1,2)-man-(1,3)-man, 0.27 M man-(1,2)-man-(1,6)-man, 0.30 M man-(1,3)-man-(1,6)-man, 0.13 M man-(1,6)-man-(1,6)-man. Similarly, alkyl mannosides were dissolved in double distilled water to give stock solutions of 100 mM methyl mannoside, 59.8 mM ethyl mannoside, 45.9 mM propyl mannoside, 51.9 mM butyl mannoside, 17.3 mM pentyl mannoside, 20.8 mM hexyl mannoside, 15.3 mM heptyl mannoside, 15.2 mM octyl mannoside. pNPalphaMan and MeUmbalphaMan (6 mg each) were dissolved in 20 μl DMSO and diluted to 20 mM using double distilled water. Binding experiments were performed using six different concentrations of [^3H]-alpha-D-mannose (final concentrations 43.5 μM, 29.0 μM, 19.3 μM, 12.9 μM, 8.6 μM, 5.7 μM). FimHtrJ96 obtained by growing bacteria in minimal medium was used in all binding experiments. 180 μl protein at a concentration of about 500 nM was mixed with 20 μl of the radioactive ligand, and incubated at 37° C. for 20 min. To separate free ligand from bound, the mixture was rapidly filtrated through a Protran BA 85 Cellulose-nitrate filter (Schleicher & Schuell, Dassel, Germany), and washed once with 1 ml of ice-cold 1× PBS (phosphate buffered saline). Filter-bound radioactivity was measured by scintillation spectrometry within 24 hours. The displacement experiments were performed using six different concentrations (final concentrations in the range 0.0˜43.5 μM) of the inhibitor, in the presence of 43.5 μM [^3H]-alpha-D-mannose. 20 μl radioactive ligand, 20 μl inhibitor at decreasing concentrations, and 160 μl protein (500 nM) were mixed, and the experiments performed as above. All experiments were performed in duplicates. For determination of KD for α-D-mannose, a hyperbolic curve (y=P1x/(P2+x), where P2=KD) was fitted to the data. For the displacement experiments, the curve y=P1/(P2+x), where P2 is the concentration of the inhibitor displacing 50% of the labelled ligand, [I]0.5 was used instead. To calculate the inhibitor dissociation constant (KI) the Cheng & Prusoff equation (KI=[I]0.5/([L]/KL+1); KL is the constant of dissociation for the ligand) (Cheng and Prusoff, 1973), was used when both the concentration of the radioactive ligand (L) and the displacing agent (I) are in excess over the protein (LT>>PT;IT>>PT, T indicates total concentration). […] A plot of IT/((1−Y)*(LT/KL)−Y) against 1/Y gives a straight line with a slope of KI."}, "FimHtrF18": {"molecular_target": "T3, FimHtrF18 (Escherichia coli, UniProt P08191, N91S/S99N/V48A)", "T3 construct": "coding for the lectin domain of FimH (residues 1-158) with a C-terminal 6-histidine tag; made in house; host or cells: E. coli HB101 (lacking the fim operon), periplasmic extract, plasmid pPKL316", "T3 sequence (P08191 22-179 V48A/N91S/S99N)": "as the sequence (P08191 22-179) above, with V27A, N70S, S78N counted along it", "format": "binding, E. coli fecal (F18) strain", "conditions": "for Kd: Table 3, [3H]-mannose displacement assay (mannose measured directly), read-out: KD F18; for ΔG° F18: Table 3, calculated from KD", "procedure": "as §1, §2"}},
  "data": [
    {"smiles": "OC[C@H]1O[C@H](O[C@@H]2[C@@H](O[C@@H]3C(O)O[C@H](CO)[C@@H](O)[C@@H]3O)O[C@H](CO)[C@@H](O)[C@@H]2O)[C@@H](O)[C@@H](O)[C@@H]1O", "note": "(stereo partly drawn) [man-(1,2)-man-(1,2)-man]", "values": [
      {"measurement": "Kd", "setting": "FimHtrJ96", "value": 1.6, "unit": "µM"},
      {"measurement": "ΔG° J96", "setting": "FimHtrJ96", "value": -8.2, "unit": "kcal/mol"},
      {"measurement": "Kd", "setting": "FimHtrCl#4", "value": 3.95, "unit": "µM"},
      {"measurement": "ΔG° CI#4", "setting": "FimHtrCl#4", "value": -7.7, "unit": "kcal/mol"},
      {"measurement": "Kd", "setting": "FimHtrF18", "value": 3.25, "unit": "µM"},
      {"measurement": "ΔG° F18", "setting": "FimHtrF18", "value": -7.8, "unit": "kcal/mol"}
    ]},
    {"smiles": "OC[C@H]1O[C@H](O[C@@H]2[C@@H](OC[C@H]3OC(O)[C@@H](O)[C@@H](O)[C@@H]3O)O[C@H](CO)[C@@H](O)[C@@H]2O)[C@@H](O)[C@@H](O)[C@@H]1O", "note": "(stereo partly drawn) [man-(1,2)-man-(1,6)-man]", "values": [
      {"measurement": "Kd", "setting": "FimHtrJ96", "value": 0.83, "unit": "µM"},
      {"measurement": "ΔG° J96", "setting": "FimHtrJ96", "value": -8.6, "unit": "kcal/mol"},
      {"measurement": "Kd", "setting": "FimHtrCl#4", "value": 2.2, "unit": "µM"},
      {"measurement": "ΔG° CI#4", "setting": "FimHtrCl#4", "value": -8.0, "unit": "kcal/mol"},
      {"measurement": "Kd", "setting": "FimHtrF18", "value": 1.8, "unit": "µM"},
      {"measurement": "ΔG° F18", "setting": "FimHtrF18", "value": -8.1, "unit": "kcal/mol"}
    ]},
    {"smiles": "OC[C@H]1O[C@H](O[C@@H]2[C@@H](O[C@H]3[C@H](O)[C@@H](CO)OC(O)[C@H]3O)O[C@H](CO)[C@@H](O)[C@@H]2O)[C@@H](O)[C@@H](O)[C@@H]1O", "note": "(stereo partly drawn) [man-(1,2)-man-(1,3)-man]", "values": [
      {"measurement": "Kd", "setting": "FimHtrJ96", "value": 1.8, "unit": "µM"},
      {"measurement": "ΔG° J96", "setting": "FimHtrJ96", "value": -8.1, "unit": "kcal/mol"},
      {"measurement": "Kd", "setting": "FimHtrCl#4", "value": 3.65, "unit": "µM"},
      {"measurement": "ΔG° CI#4", "setting": "FimHtrCl#4", "value": -7.7, "unit": "kcal/mol"},
      {"measurement": "Kd", "setting": "FimHtrF18", "value": 3.05, "unit": "µM"},
      {"measurement": "ΔG° F18", "setting": "FimHtrF18", "value": -7.8, "unit": "kcal/mol"}
    ]},
    {"smiles": "OC[C@H]1O[C@H](O[C@@H]2[C@H](O)[C@@H](OC[C@H]3OC(O)[C@@H](O)[C@@H](O)[C@@H]3O)O[C@H](CO)[C@H]2O)[C@@H](O)[C@@H](O)[C@@H]1O", "note": "(stereo partly drawn) [man-(1,3)-man-(1,6)-man]", "values": [
      {"measurement": "Kd", "setting": "FimHtrJ96", "value": 0.485, "unit": "µM"},
      {"measurement": "ΔG° J96", "setting": "FimHtrJ96", "value": -8.6, "unit": "kcal/mol"},
      {"measurement": "Kd", "setting": "FimHtrCl#4", "value": 1.03, "unit": "µM"},
      {"measurement": "ΔG° CI#4", "setting": "FimHtrCl#4", "value": -8.5, "unit": "kcal/mol"},
      {"measurement": "Kd", "setting": "FimHtrF18", "value": 0.73, "unit": "µM"},
      {"measurement": "ΔG° F18", "setting": "FimHtrF18", "value": -8.7, "unit": "kcal/mol"}
    ]},
    {"smiles": "OC[C@H]1O[C@H](OC[C@H]2O[C@H](OC[C@H]3OC(O)[C@@H](O)[C@@H](O)[C@@H]3O)[C@@H](O)[C@@H](O)[C@@H]2O)[C@@H](O)[C@@H](O)[C@@H]1O", "note": "(stereo partly drawn) [man-(1,6)-man-(1,6)-man]", "values": [
      {"measurement": "Kd", "setting": "FimHtrJ96", "value": 1.4, "unit": "µM"},
      {"measurement": "ΔG° J96", "setting": "FimHtrJ96", "value": -8.3, "unit": "kcal/mol"},
      {"measurement": "Kd", "setting": "FimHtrCl#4", "value": 7.5, "unit": "µM"},
      {"measurement": "ΔG° CI#4", "setting": "FimHtrCl#4", "value": -7.3, "unit": "kcal/mol"},
      {"measurement": "Kd", "setting": "FimHtrF18", "value": 5.9, "unit": "µM"},
      {"measurement": "ΔG° F18", "setting": "FimHtrF18", "value": -7.4, "unit": "kcal/mol"}
    ]}
  ]
}
